From ChEMBL document CHEMBL4130471, “Design and synthesis of tranylcypromine derivatives as novel LSD1/HDACs dual inhibitors for cancer treatment” (Eur J Med Chem, 2017) come the findings set out here.

In assay [1] the test system is PC-3. Kind of assay: cells. It is filed as functional, cell-based. Conditions: Homo sapiens, PC-3, 72 h; call rule not given here.
Assay [2] has as its target T1, Amine oxidase [flavin-containing] A (Homo sapiens, UniProt P21397).
T1 sequence (P21397 whole entry): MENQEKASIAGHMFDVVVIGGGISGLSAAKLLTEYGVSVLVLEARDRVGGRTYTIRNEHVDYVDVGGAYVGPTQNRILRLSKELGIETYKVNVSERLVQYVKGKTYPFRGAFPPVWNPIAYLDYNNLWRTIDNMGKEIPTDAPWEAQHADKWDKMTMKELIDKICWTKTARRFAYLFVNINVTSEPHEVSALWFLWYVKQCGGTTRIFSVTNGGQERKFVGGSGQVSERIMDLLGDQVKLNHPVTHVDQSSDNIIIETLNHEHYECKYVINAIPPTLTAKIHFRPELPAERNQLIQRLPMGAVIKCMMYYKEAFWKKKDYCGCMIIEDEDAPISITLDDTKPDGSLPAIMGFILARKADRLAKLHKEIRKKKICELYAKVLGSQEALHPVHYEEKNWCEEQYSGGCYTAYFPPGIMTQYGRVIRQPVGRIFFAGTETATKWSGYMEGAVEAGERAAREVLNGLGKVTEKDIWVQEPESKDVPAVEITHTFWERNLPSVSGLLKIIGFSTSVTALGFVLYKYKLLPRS
Description: Inhibition of MAOA (unknown origin) using beetle luciferin as substrate by MAO-Glo assay

Assay [3] deals with Lysine-specific histone demethylase 1A (Homo sapiens, UniProt O60341).
Description: Inhibition of recombinant LSD1 (157 to 852 amino acids) (unknown origin) expressed in Escherichia coli BL21(DE) using H3K4me2 substrate by amplex red and horseradish peroxidase based fluorescence assay
The test system of assay [4] is MGC-803. The experiment in a line: cells. Type of assay: functional, cell-based. Conditions: Homo sapiens, MGC-803, 72 h.
Description: Antiproliferative activity against human MGC803 cells incubated for 72 hrs by MTT assay
Assay [5] has as its target T2, Amine oxidase [flavin-containing] B (Homo sapiens, UniProt P27338).
T2 sequence (P27338 whole entry): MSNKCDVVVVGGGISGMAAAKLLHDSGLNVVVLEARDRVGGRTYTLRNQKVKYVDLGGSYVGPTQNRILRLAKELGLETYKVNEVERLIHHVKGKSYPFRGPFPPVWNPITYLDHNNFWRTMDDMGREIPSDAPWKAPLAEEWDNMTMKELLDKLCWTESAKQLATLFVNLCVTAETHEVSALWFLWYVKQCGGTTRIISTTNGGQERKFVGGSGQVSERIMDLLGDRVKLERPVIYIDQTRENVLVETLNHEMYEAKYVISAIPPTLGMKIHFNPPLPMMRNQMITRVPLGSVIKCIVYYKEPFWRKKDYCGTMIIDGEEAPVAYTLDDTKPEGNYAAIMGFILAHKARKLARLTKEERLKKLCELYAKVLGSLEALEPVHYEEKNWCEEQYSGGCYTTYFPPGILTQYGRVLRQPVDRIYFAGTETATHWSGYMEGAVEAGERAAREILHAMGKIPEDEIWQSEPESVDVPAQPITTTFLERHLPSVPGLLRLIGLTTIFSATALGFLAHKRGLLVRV
Description: Inhibition of MAOB (unknown origin) using beetle luciferin as substrate by MAO-Glo assay

For assay [6], the target named is Histone deacetylase 1 (Homo sapiens, UniProt Q13547). Kind of assay: Inhibition of C-terminal His-tagged and C-terminal FLAG-tagged human HDAC1 expressed in baculovirus expression system using Ac-peptide substrate incubated for 15 mins by fluorescence based assay.
Sequence of Histone deacetylase 1 (Q13547 whole entry, the tested form may be a part): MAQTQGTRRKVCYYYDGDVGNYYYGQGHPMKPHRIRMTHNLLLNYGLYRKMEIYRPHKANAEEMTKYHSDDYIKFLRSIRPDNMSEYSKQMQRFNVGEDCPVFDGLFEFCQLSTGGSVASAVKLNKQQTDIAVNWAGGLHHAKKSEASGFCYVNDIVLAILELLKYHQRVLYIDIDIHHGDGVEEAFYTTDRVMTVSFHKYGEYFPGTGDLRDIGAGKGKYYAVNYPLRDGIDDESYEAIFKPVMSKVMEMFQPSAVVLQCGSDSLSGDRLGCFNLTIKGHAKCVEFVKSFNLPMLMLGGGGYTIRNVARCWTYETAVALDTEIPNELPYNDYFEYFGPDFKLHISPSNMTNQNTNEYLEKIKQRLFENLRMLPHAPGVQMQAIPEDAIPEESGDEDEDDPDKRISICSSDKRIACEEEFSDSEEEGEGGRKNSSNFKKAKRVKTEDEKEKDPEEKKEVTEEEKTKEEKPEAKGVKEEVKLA
The target in assay [7] is Histone deacetylase 5 (Homo sapiens, UniProt Q9UQL6). Kind of assay: Inhibition of C-terminal His-tagged human HDAC5 (656-1122 residues) expressed in baculovirus expression system using Ac-peptide substrate incubated for 15 mins by fluorescence based assay.
Sequence of Histone deacetylase 5 (Q9UQL6 whole entry, the tested form may be a part): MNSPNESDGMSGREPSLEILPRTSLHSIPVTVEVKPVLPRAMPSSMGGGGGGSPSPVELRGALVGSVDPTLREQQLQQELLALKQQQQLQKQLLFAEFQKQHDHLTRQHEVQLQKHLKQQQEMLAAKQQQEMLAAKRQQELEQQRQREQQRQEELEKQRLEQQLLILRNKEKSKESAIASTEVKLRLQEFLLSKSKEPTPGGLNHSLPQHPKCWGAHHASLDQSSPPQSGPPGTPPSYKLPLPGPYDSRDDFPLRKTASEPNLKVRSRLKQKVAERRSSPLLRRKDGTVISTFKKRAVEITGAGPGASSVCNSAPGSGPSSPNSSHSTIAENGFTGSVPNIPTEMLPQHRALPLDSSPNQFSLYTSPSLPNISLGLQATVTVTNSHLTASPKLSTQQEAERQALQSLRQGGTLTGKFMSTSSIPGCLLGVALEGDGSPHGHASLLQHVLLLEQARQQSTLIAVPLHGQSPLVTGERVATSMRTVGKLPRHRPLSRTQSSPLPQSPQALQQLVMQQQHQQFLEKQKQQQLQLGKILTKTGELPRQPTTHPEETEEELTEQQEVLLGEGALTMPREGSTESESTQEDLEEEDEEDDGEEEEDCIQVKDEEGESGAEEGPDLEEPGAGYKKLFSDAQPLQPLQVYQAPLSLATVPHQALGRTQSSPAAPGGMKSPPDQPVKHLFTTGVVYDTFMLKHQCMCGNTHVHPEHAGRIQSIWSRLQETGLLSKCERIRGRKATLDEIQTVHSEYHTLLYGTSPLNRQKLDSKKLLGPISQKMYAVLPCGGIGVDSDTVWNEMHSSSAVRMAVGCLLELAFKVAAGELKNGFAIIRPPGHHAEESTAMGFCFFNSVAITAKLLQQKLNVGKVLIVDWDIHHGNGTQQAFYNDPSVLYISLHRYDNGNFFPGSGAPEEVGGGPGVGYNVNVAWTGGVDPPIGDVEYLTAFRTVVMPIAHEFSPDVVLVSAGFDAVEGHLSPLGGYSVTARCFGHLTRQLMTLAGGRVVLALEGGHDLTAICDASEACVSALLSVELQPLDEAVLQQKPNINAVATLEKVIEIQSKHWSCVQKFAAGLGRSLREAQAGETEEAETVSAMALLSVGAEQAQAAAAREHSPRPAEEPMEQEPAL
Assay [8] has as its target Histone deacetylase 2 (Homo sapiens, UniProt Q92769).
Description: Inhibition of C-terminal His-tagged full length human HDAC2 expressed in baculovirus expression system using Ac-peptide substrate incubated for 15 mins by fluorescence based assay
Assay [9] relates to MCF7. Kind of assay: cells. It is filed as functional, cell-based. Particulars: Homo sapiens, MCF7, 72 h.
Description: Antiproliferative activity against human MCF7 cells incubated for 72 hrs by MTT assay
Assay [10] concerns A549. Kind of assay: cells. Conditions: Homo sapiens, A549, 72 h. It is filed as functional, cell-based.
Description: Antiproliferative activity against human A549 cells incubated for 72 hrs by MTT assay
The test system of assay [11] is SW-620. The experiment in a line: cells. Type of assay: functional, cell-based. Conditions: Homo sapiens, SW-620, 72 h.
Description: Antiproliferative activity against human SW620 cells incubated for 72 hrs by MTT assay

As usually defined, the pIC50 is −log10 of the IC50, conventionally taken in molar units.

pIC50: −log10 of the molar value.

Sequence of Histone deacetylase 2 (Q92769 whole entry): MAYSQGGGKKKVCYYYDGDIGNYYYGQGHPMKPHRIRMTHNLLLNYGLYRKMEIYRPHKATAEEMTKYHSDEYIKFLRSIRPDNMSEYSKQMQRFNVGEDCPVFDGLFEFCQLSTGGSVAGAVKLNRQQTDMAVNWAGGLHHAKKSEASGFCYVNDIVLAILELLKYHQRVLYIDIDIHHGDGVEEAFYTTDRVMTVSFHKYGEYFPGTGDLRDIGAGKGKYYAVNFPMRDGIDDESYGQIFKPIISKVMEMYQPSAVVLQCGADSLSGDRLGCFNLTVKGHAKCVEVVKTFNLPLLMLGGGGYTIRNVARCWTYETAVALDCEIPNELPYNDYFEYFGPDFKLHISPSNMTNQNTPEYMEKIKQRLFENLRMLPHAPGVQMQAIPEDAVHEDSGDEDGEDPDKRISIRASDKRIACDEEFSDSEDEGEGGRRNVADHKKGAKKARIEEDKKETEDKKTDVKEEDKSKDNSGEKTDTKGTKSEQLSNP

For `Nc1ccccc1NC(=O)/C=C/c1ccc(CNC2CC2c2ccccc2)cc1` (stereo unspecified), the pIC50 in assay [1] is 4.94; in [2] it was 4.43; in [3], 5.41; in assay [4], 4.87; in assay [5] it was below 4.00; in assay [6] it was 6.50. The pIC50 in assay [8] is 6.31; in assay [9], 4.66; in [10] it was 5.50; in assay [11], 4.57. Moreover, the IC50 result in assay [7] is given as “Not Active”.
As to `O=C(CCCCCCC(=O)Nc1ccccc1)NO` [VORINOSTAT], the pIC50 in assay [2] and in assay [5] was below 4.00 each time.
As for `O=C(NO)c1ccc(CNC2CC2c2ccccc2)cc1` (stereo unspecified), the pIC50 in assay [1] was 4.70; in assay [2], 4.34; in assay [3], 5.39; in [4], 4.92; in assay [5] it was below 4.00; in assay [6], 5.84. Further, the pIC50 was 5.51 in assay [8], 4.76 in [9], 5.17 in [10] and 4.63 in [11]. For the same molecule, in [7], the IC50 result is recorded as “Not Active”.
Turning to `O=C(/C=C/c1ccc(CNC2CC2c2ccccc2)cc1)NO` (stereo unspecified), the negative logarithm of the IC50 (pIC50) in [1] was 5.25; in assay [2] it was 4.40; in assay [3] it was 5.66; in assay [4] it was 5.61; in [5], below 4.00; in assay [6], 7.92. Moreover, the pIC50 in [7] (read-out: IC50) was 5.53; in assay [8], 7.60; in [9], 5.20; in assay [10], 5.85; in assay [11], 5.39.
As for `Nc1ccccc1NC(=O)c1ccc(CNC2CC2c2ccccc2)cc1` (stereo unspecified), the pIC50 is 4.66 in assay [1]; 4.30 in assay [2]; 5.15 in [3]; 4.67 in [4]; below 4.00 in assay [5]; 6.66 in assay [6]. The pIC50 in assay [8] is 6.38; in [9], 4.71; in [10], 5.27; in assay [11], below 4.49. Moreover, the IC50 entry in [7] is “Not Active”.
